Results from article PMC6958422 (Pharmaceuticals, 2019).

How the values were obtained:
hA2A AR = molecular target: T1, hA2A AR (Homo sapiens, UniProt P29274); experiment: [3H]ZM241385 competition binding to hA2A CHO cell membranes; settings: for I% hA2A: percentage of inhibition at 1µM, [3H]ZM241385; for Ki: [3H]ZM241385, hA2A CHO cells, means ± SEM
T1 construct: expressed in transfected cells; host or cells: CHO cells
Method: (§1) CHO cells transfected with hA1, hA2A, hA2B, and hA3 ARs were grown adherently and maintained in Dulbecco’s modified Eagle’s medium (Sigma-Aldrich, Milan, Italy) with nutrient mixture F12, containing 10% fetal calf serum, penicillin (100 U/mL), streptomycin (100 μg/mL), l-glutamine (2 mM) and geneticin (G418; 0.2 mg/mL) at 37°C in 5% CO2/95% air until the use in cAMP assays. For membrane preparation, the culture medium was removed, and the cells were washed with phosphate-buffered saline and scraped off T75 flasks in ice-cold hypotonic buffer (5 mM Tris HCl, 1 mM EDTA, pH 7.4). The cell suspension was homogenized with a Polytron, centrifuged for 30 min at 40000 g at 4°C, and the resulting membrane pellet was used for competition binding experiments.
(§2) All synthesized compounds have been tested for their affinity to hA1, hA2A, and hA3 ARs. Competition experiments to hA1 ARs were carried out incubating 1 nM [^3H]-8-cyclopentyl-1,3-dipropylxanthine ([^3H]-DPCPX) with membrane suspension (50 μg of protein/100 μL) and different concentrations of the examined compounds at 25°C for 90 min in 50 mM Tris HCl, pH 7.4. […] Inhibition experiments to hA2A ARs were performed incubating the radioligand [^3H]-ZM241385 (4-(2-[7-Amino-2-(2-furyl)[1,2,4]triazolo[2,3-a][1,3,5]triazin-5-ylamino]ethyl)phenol) (1 nM) with the membrane suspension (50 μg of protein/100 μL) and different concentrations of the examined compounds for 60 min at 4°C in 50 mM Tris HCl (pH 7.4), 10 mM MgCl2. Non-specific binding was determined in the presence of ZM241385 (1 μM) and was about 20% of the total binding. Competition binding experiments to A3 ARs were carried out incubating the membrane suspension (50 μg of protein/100 μL) with 0.5 nM [^125I]-N^6-(4-aminobenzyl)-N-methylcarboxamidoadenosine ([^125I]-ABMECA) in the presence of different concentration of the examined compounds for an incubation time of 120 min at 4°C in 50 mM Tris HCl (pH 7.4), 10 mM MgCl2, and 1 mM EDTA. Non-specific binding was defined as binding in the presence of 1μM ABMECA and was always < 10% of the total binding. Bound and free radioactivity were separated by filtering the assay mixture through Whatman GF/B glass fiber filters using a Brandel cell harvester (Brandel Instruments, Unterföhring, Germany). The filter bound radioactivity was counted by Packard Tri Carb 2810 TR scintillation counter (Perkin Elmer, Boston, MA, USA).
(§3) The protein concentration was determined according to a Bio-Rad method with bovine albumin as a standard reference. Inhibitory binding constant (Ki) values were calculated from those of IC50 according to Cheng & Prusoff equation Ki = IC50/(1+[C*]/KD*), where [C*] is the concentration of the radioligand and KD* its dissociation constant. Ki and IC50 values were calculated by non-linear regression analysis using the equation for a sigmoid concentration-response curve (Graph-PAD Prism, San Diego, CA, USA).

hA1 AR = molecular target: T2, hA1 AR (Homo sapiens, UniProt P30542); experiment: [3H]DPCPX competition binding to hA1 CHO cell membranes; settings: for I% hA1: percentage of inhibition at 1µM, [3H]DPCPX
T2 construct: expressed in transfected cells; host or cells: CHO cells
T2 sequence (P30542 1-326): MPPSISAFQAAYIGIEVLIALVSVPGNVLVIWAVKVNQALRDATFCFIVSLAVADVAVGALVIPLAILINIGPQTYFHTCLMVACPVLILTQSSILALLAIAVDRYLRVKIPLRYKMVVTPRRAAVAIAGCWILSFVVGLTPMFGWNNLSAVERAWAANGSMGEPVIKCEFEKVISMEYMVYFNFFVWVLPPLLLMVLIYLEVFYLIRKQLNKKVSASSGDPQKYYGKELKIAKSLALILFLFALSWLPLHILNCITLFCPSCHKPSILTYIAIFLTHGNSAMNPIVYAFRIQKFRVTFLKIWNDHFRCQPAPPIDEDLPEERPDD
Method: as §1, §2, §3

hA3 AR = molecular target: T3, hA3 AR (Homo sapiens, UniProt P0DMS8); experiment: [125I]AB-MECA competition binding to hA3 CHO cell membranes; settings: for Ki: hA3 CHO cells, means ± SEM; for inhibition at 1 µM: percentage of inhibition at 1µM
T3 construct: expressed in transfected cells; host or cells: CHO cells
T3 sequence (P0DMS8 1-318): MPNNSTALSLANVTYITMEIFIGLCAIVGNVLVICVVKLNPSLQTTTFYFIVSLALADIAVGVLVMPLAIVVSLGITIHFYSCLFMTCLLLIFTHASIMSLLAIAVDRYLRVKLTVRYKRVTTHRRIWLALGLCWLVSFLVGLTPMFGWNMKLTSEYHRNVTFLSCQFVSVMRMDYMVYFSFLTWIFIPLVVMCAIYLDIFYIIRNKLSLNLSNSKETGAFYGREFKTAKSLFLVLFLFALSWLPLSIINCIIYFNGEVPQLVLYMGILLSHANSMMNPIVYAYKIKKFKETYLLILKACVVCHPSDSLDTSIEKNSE
Method: as §1, §2, §3

hA2B AR = molecular target: T4, hA2B AR (Homo sapiens, UniProt P29275); experiment: cAMP assay, stimulation of cAMP production in hA2B CHO cells (agonism); format: cell-based; settings: for Emax at 1 µM: CHO, compound at 1µM, in comparison with NECA (1µM = 100%), read-out: Efficacy hA2B (cAMP assays) (converted); for EC50: hA2B CHO cells, means ± SEM of four assays
T4 construct: expressed in transfected cells; host or cells: CHO cells
T4 sequence (P29275 1-332): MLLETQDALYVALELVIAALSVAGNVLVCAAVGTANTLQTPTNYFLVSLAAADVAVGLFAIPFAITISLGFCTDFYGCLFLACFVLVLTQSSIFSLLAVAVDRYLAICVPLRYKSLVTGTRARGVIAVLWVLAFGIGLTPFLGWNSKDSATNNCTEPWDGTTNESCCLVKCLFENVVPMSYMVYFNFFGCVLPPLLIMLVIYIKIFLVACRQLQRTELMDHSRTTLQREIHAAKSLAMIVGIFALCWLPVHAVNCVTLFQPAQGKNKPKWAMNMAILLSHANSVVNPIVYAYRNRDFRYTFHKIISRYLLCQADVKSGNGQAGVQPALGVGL
Method: The amino-3,5-dicyanopyridines 1–20 were tested for their affinity at hA1, hA2A, and hA3 ARs, stably transfected in Chinese Hamster Ovary (CHO) cells, and were also studied as hA2B agonists by evaluating their stimulatory effect on cAMP production in CHO cells, stably expressing the hA2B AR.
as §1
CHO cells transfected with hAR subtypes were washed with phosphate-buffered saline, detached with trypsin and centrifuged for 10 min at 200 g. Cells were seeded in 96-well white half-area microplate (Perkin Elmer, Boston, USA) in a stimulation buffer composed of Hank Balanced Salt Solution (Sigma-Aldrich, Milan, Italy), 5 mM HEPES, 0.5 mM Ro 20-1724, and 0.1% BSA. cAMP levels were then quantified by using the AlphaScreen cAMP Detection Kit (Perkin Elmer) following the manufacturer’s instructions. At the end of the experiments, plates were read with the Perkin Elmer EnSight Multimode Plate Reader.

T1 sequence (P29274 whole entry): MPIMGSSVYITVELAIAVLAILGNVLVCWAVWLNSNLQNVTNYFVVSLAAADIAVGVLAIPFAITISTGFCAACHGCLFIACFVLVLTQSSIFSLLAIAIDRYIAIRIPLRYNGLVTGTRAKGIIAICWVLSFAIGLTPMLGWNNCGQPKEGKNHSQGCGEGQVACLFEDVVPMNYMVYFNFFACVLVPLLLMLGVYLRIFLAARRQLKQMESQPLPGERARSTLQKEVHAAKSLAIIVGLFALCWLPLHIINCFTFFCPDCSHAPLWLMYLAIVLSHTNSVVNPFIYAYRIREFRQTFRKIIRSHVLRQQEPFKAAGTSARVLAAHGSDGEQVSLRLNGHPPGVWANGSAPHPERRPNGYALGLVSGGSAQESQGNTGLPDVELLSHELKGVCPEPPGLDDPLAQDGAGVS

Row | Structure (SMILES) | I% hA2A (hA2A AR) [%] | melting point | I% hA1 (hA1 AR) [%] | Ki (hA3 AR) [nM] | Emax at 1 µM (hA2B AR) [%] | EC50 (hA2B AR) [nM] | inhibition at 1 µM (hA3 AR) [%] | Ki (hA1 AR) [nM] | Ki (hA2A AR) [nM] | Pharmacological profile at hA2BAR (hA2B AR; cAMP assay)
1 | N#Cc1c(N)nc(SCc2ncc[nH]2)c(C#N)c1-c1ccc(OCC2CCC2)cc1 [Compound 1, 2-Amino-4-[4-(cyclobutylmethoxy)phenyl]-6-[(1H-imidazol-2-ylmethyl)sulfanyl]pyridine-3,5-dicarbonitrile] | 4 | 214 to 216 °C | 25 | 574 ± 46 | 12 | > 1000 |  |  |  | 
2 | CC(C)COc1ccc(-c2c(C#N)c(N)nc(SCc3ncc[nH]3)c2C#N)cc1 [Compound 2, 2-Amino-6-[(1H-imidazol-2-ylmethyl)sulfanyl]-4-[4-(2-methylpropoxy)phenyl]pyridine-3,5-dicarbonitrile] | 1 | 230 to 232 °C | 26 |  | 36 | 227 ± 21 | 1 |  |  | 
3 | N#Cc1c(N)nc(SCc2ncc[nH]2)c(C#N)c1Cc1ccccc1 [Compound 12, 2-Amino-4-benzyl-6-[(1H-imidazol-2-ylmethyl)sulfanyl]pyridine-3,5-dicarbonitrile] | 8 | 246 to 248 °C (dec.) | 31 |  | 44 | 260 ± 24 | 1 |  |  | 
4 | Cc1c(C#N)c(N)nc(SCc2ncc[nH]2)c1C#N [Compound 13, 2-Amino-6-[(1H-imidazol-2-ylmethyl)sulfanyl]-4-methylpyridine-3,5-dicarbonitrile] |  | 267 to 269 °C (dec.) |  | 510 ± 53 | 1 | > 1000 |  | 74 ± 8 | 331 ± 32 | 
5 | N#Cc1c(N)nc(NCc2ncc[nH]2)c(C#N)c1-c1ccccc1 [Compound 14, 2-Amino-6-[(1H-imidazol-2-ylmethyl)amino]-4-phenylpyridine-3,5-dicarbonitrile] |  | 208 to 210 °C |  |  | 1 | > 1000 | 19 | 140 ± 12 | 115 ± 10 | 
6 | N#Cc1c(N)nc(NCCO)c(C#N)c1-c1ccccc1 [Compound 15, 2-Amino-6-[(2-hydroxyethyl)amino]-4-phenylpyridine-3,5-dicarbonitrile] | 1 | 230 to 231 °C |  |  | 1 | > 1000 | 1 | 943 ± 87 |  | 
7 | COc1ccc(CCNc2nc(N)c(C#N)c(-c3ccccc3)c2C#N)cc1 [Compound 16, 2-Amino-6-{[2-(4-methoxyphenyl)ethyl]amino}-4-phenylpyridine-3,5-dicarbonitrile] | 1 |  | 1 |  | 1 | > 1000 | 1 |  |  | 
8 | N#Cc1c(N)nc(-n2ccnc2)c(C#N)c1-c1ccccc1 [Compound 17, 2-Amino-6-(1H-imidazol-1-yl)-4-phenylpyridine-3,5-dicarbonitrile] | 1 | 253 to 255 °C | 27 |  | 1 | > 1000 | 25 |  |  | 
9 | N#Cc1cnc(N)c(C#N)c1-c1ccccc1 [Compound 18, 2-amino-4-phenylpyridine-3,5-dicarbonitrile] | 16 | 244 to 246 °C | 15 |  | 1 | > 1000 | 5 |  |  | 

Now from value to compound:

Row | I% hA2A (hA2A AR) [%] | melting point | I% hA1 (hA1 AR) [%] | Ki (hA3 AR) [nM] | Emax at 1 µM (hA2B AR) [%] | EC50 (hA2B AR) [nM] | inhibition at 1 µM (hA3 AR) [%] | Ki (hA1 AR) [nM] | Ki (hA2A AR) [nM] | Pharmacological profile at hA2BAR (hA2B AR; cAMP assay) | Structure (SMILES)
10 | 1 | 224 to 226 °C |  |  | 14 | > 1000 | 8 | 77 ± 6 |  |  | C=C(C)COc1ccc(-c2c(C#N)c(N)nc(SCc3ncc[nH]3)c2C#N)cc1 [Compound 4, 2-Amino-6-[(1H-imidazol-2-ylmethyl)sulfanyl]-4-{4-[(2-methylprop-2-en-1-yl)oxy]phenyl} pyridine-3,5-dicarbonitrile]
11 |  | 275 to 278 °C |  | 48 ± 4 | 100 | 12 ± 1 |  | 83 ± 7 | 38 ± 3 | full agonist profile | CC(=O)Nc1ccc(-c2c(C#N)c(N)nc(SCc3ncc[nH]3)c2C#N)cc1 [Compound 6, N-(4-{2-Amino-3,5-dicyano-6-[(1H-imidazol-2-ylmethyl)sulfanyl]pyridin-4-yl}phenyl) acetamide]
12 |  | 229 to 231 °C (dec.) |  | 850 ± 62 | 32 | 109 ± 12 |  | 30 ± 4 | 865 ± 68 |  | N#Cc1c(N)nc(SCc2ncc[nH]2)c(C#N)c1-c1ccc(Cl)cc1 [Compound 7, 2-Amino-4-(4-chlorophenyl)-6-[(1H-imidazol-2-ylmethyl)sulfanyl]pyridine-3,5-dicarbonitrile]
13 | 32 | 233 to 235 °C (dec.) |  |  | 4 | > 1000 | 21 | 419 ± 32 |  |  | N#Cc1c(N)nc(SCc2ncc[nH]2)c(C#N)c1-c1ccc(C(F)(F)F)cc1 [Compound 9, 2-Amino-6-[(1H-imidazol-2-ylmethyl)sulfanyl]-4-[4-(trifluoromethyl)phenyl]pyridine-3,5-dicarbonitrile]
14 |  | 259 to 261 °C (dec.) |  | 212 ± 19 | 78 | 78 ± 6 |  | 5.32 ± 0.42 | 47 ± 4 |  | Cc1ccc(-c2c(C#N)c(N)nc(SCc3ncc[nH]3)c2C#N)cc1 [Compound 10, 2-[(1H-Imidazol-2-il)metiltio]-6-ammino-4(4-metilfenil)piridina-3,5-dicarbonitrile]
